Data: patent US7879848B2, “Dipeptidyl Peptidase-IV inhibiting compounds, method of preparing the same, and pharmaceutical compositions containing the same as an active agent” (LG Life Sciences, Ltd., priority 2005, dated 2011)

Molecular target: T1, Dipeptidyl Peptidase-IV (DPP-IV) (Homo sapiens, UniProt P27487)
T1 construct: made in house
Assay: Measurement of DPP-IV Activity-Inhibiting Ability (fluorescent substrate Ac-Gly-Pro-AFC)
Format: biochemical
Conditions: 25° C., 50 mmol HEPES (pH 7.4), DP-IV 7.1 nM, enzyme reaction for 1 hour
Method in brief: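 Fluorescence (ex 400 nm, em 505 nm) from cleavage of Ac-Gly-Pro-AFC ([…]) tracked activity at various inhibitor concentrations. Reactions used 7.1 nM recombinant enzyme, expressed in baculovirus and purified on nickel, in 50 mmol HEPES pH 7.4 at 25 °C.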

T1 sequence (P27487 whole entry): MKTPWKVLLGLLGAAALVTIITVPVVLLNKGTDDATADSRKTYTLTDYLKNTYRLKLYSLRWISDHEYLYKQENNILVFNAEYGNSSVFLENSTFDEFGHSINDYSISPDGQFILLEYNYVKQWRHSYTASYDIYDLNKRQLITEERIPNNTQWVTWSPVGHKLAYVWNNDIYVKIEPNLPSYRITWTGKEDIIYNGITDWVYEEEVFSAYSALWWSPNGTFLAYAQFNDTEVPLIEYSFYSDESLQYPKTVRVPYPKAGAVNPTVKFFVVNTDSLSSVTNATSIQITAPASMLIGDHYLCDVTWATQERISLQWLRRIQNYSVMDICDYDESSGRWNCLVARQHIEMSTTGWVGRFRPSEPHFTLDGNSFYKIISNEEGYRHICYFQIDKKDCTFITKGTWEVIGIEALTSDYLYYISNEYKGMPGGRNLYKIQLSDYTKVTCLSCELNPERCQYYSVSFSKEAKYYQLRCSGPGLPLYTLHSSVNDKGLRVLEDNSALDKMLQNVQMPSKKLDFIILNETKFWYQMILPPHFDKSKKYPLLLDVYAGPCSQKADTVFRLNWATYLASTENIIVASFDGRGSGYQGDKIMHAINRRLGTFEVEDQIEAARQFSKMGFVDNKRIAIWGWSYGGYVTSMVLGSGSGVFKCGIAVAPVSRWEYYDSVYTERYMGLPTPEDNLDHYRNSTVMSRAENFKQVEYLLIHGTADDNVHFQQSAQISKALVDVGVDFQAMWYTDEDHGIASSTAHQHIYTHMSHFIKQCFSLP

| Structure (SMILES) | IC50 [nM] |
| --- | --- |
| CC1CC(=O)N(C[C@@H](N)CC(=O)N2CCc3c(nc(-c4ccoc4)nc3C(F)(F)F)C2)C1 (stereo partly drawn) [Ex. 106, 1-{(2S)-2-amino-4-[2-(3-furyl)-4-(trifluoromethyl)-5,8-dihydropyrido[3,4-d]pyrimidin-7(6H)-yl]-4-oxobutyl}-4-methylpyrrolidin-2-one] | 45 |
| N[C@@H](CC(=O)N1CCc2sc(C(F)(F)F)nc2C1)CN1CC(F)(F)CCC1=O [Ex. 51, 1-{(2S)-2-amino-4-oxo-4-[2-(trifluoromethyl)-6,7-dihydro[1,3]thiazolo[4,5,c]pyridin-5(4H)-yl]butyl}-5,5-difluoropiperidin-2-one] | 114 |
| C[C@@H]1CCC(=O)N(C[C@@H](N)CC(=O)N2CCc3c(nc(C(F)(F)C(F)(F)F)nc3C(F)(F)F)C2)C1 [Ex. 96, (5R)-1-{(2S)-2-amino-4-oxo-4-[2-(pentafluoroethyl)-4-(trifluoromethyl)-5,8-dihydropyrido[3,4-d]pyrimidin-7(6H)-yl]butyl}-5-methylpiperidin-2-one] | 7 |
| N[C@@H](CC(=O)N1CCc2c(nc(Cc3ccc(F)cc3)nc2C(F)(F)F)C1)CN1CC(F)(F)CCC1=O [Ex. 59, 1-{(2S)-2-amino-4-[2-(4-fluorobenzyl)-4-(trifluoromethyl)-5,8-dihydropyrido[3,4-d]pyrimidin-7(6H)-yl]-4-oxobutyl}-5,5-difluoropiperidin-2-one] | 36 |
| CC1=CC(=O)N(C[C@@H](N)CC(=O)N2CCn3c(nnc3C(F)(F)F)C2)C1 [Ex. 9, 1-[2S-amino-4-oxo-4-(3-trifluoromethyl-5,6-dihydro-8H-[1,2,4]triazolo[4,3-a]pyrazin-7-yl)-butyl]-4-methyl-1,5-dihydro-pyrrol-2-one] | 201 |
| C[C@H]1CN(C[C@@H](N)CC(=O)N2CCn3c(nnc3C(F)(F)F)C2)C(=O)CO1 [Ex. 78, (6S)-4-{(2S)-2-amino-4-oxo-4-[3-(trifluoromethyl)-5,6-dihydro[1,2,4]triazolo[4,3-a]pyrazin-7(8H)-yl]butyl}-6-methylmorpholine-3-one] | 163 |
| N[C@@H](CC(=O)N1CCc2c(nc(-c3cccnc3)nc2C(F)(F)F)C1)CN1CC(F)(F)CCC1=O [Ex. 71, 1-{(2S)-2-amino-4-oxo-4-[2-pyridin-3-yl-4-(trifluoromethyl)-5,8-dihydropyrido[3,4-d]pyrimidin-7(6H)-yl]butyl}-5,5-difluoropiperidin-2-one] | 5 |
| N[C@@H](CC(=O)N1CCc2c(nc(-c3cccs3)nc2C(F)(F)F)C1)CN1CC(F)(F)CCC1=O [Ex. 63, 1-{(2S)-2-amino-4-oxo-4-[2-(2-thienyl)-4-(trifluoromethyl)-5,8-dihydropyrido[3,4-d]pyrimidin-7(6H)-yl]butyl}-5,5-difluoropiperidin-2-one] | 35 |
| N[C@@H](CC(=O)N1CCn2c(nnc2C(F)(F)F)C1)CN1CCCC(F)C1=O (stereo partly drawn) [Ex. 7, 1-[2S-amino-4-oxo-4-(3-trifluoromethyl-5,6-dihydro-8H-[1,2,4]triazolo[4,3-a]pyrazin-7-yl)-butyl]-3-fluoro-piperidin-2-one] | > 10000 |
| CC1CN(C[C@@H](N)CC(=O)N2CCn3c(nnc3C(F)(F)F)C2)C(=O)O1 (stereo partly drawn) [Ex. 2, 3-[2S-amino-4-oxo-4-(3-trifluoromethyl-5,6-dihydro-8H-[1,2,4]triazolo[4,3-a]pyrazin-7-yl)-butyl]-5-methyl-oxazolidin-2-one] | 950 |
| C[C@@H]1CCC(=O)N(C[C@@H](N)CC(=O)N2CCc3c(ncnc3C(F)(F)F)C2)C1 [Ex. 21] | 24 |
| C[C@H]1CN(C[C@@H](N)CC(=O)N2CCc3c(nc(C(F)(F)F)nc3C(F)(F)F)C2)C(=O)CO1 [Ex. 84] | 38 |
| N[C@@H](CC(=O)N1CCc2c(ncnc2C(F)(F)F)C1)CN1CC(F)(F)CCC1=O [Ex. 87, 1-{(2S)-2-amino-4-oxo-4-[4-(trifluoromethyl)-5,8-dihydropyrido[3,4-d]pyrimidin-7(6H)-yl]butyl}-5,5-difluoropiperidin-2-one] | 29 |
| C[C@@H]1CN(C[C@@H](N)CC(=O)N2CCn3c(nnc3C(F)(F)F)C2)C(=O)CO1 [Ex. 77, (6R)-4-{(2S)-2-amino-4-oxo-4-[3-(trifluoromethyl)-5,6-dihydro[1,2,4]triazolo[4,3-a]pyrazin-7(8H)-yl]butyl}-6-methylmorpholine-3-one] | 94 |
| CC1CN(C[C@@H](N)CC(=O)N2CCn3c(nnc3C(F)(F)F)C2)C(=O)CS1 (stereo partly drawn) [Ex. 94, 4-{(2S)-2-amino-4-oxo-4-[3-(trifluoromethyl)-5,6-dihydro[1,2,4]triazolo[4,3-a]pyrazin-7(8H)-yl]butyl}-6-methylthiomorpholin-3-one] | 238 |
| C[C@H]1CN(C[C@@H](N)CC(=O)N2CCc3c(nc(-c4ccc(F)c(F)c4)nc3C(F)(F)F)C2)C(=O)CO1 [Ex. 36] | 33 |
| N[C@@H](CC(=O)N1CCn2c(nnc2C(F)(F)F)C1)CN1CC(F)(F)CCC1=O [Ex. 11, 1-[2S-amino-4-oxo-4-(3-trifluoromethyl-5,6-dihydro-8H-[1,2,4]triazolo[4,3-a]pyrazin-7-yl)-butyl]-5,5-difluoro-piperidin-2-one] | 75 |
| CC1CCN(C[C@@H](N)CC(=O)N2CCc3c(nc(-c4ccoc4)nc3C(F)(F)F)C2)C(=O)C1 (stereo partly drawn) [Ex. 111, 1-{(2S)-2-amino-4-[2-(3-furyl)-4-(trifluoromethyl)-5,8-dihydropyrido[3,4-d]pyrimidin-7(6H)-yl]-4-oxobutyl}-4-methylpiperidin-2-one] | 70 |
| CC(C)c1nc2c(c(C(F)(F)F)n1)CCN(C(=O)C[C@H](N)CN1C[C@H](C)OCC1=O)C2 [Ex. 76, (6S)-4-{(2S)-2-amino-4-[2-isopropyl-4-(trifluoromethyl)-5,8-dihydropyrido[3,4-d]pyrimidin-7(6H)-yl]-4-oxobutyl}-6-methylmorpholine-3-one] | 30 |
| C[C@H]1CN(C[C@@H](N)CC(=O)N2CCc3c(nc(-c4ccccc4)nc3C(F)(F)F)C2)C(=O)CO1 [Ex. 23] | 130 |
| C[C@@H]1CCC(=O)N(C[C@@H](N)CC(=O)N2CCc3c(nc(-c4ccc(F)cc4)nc3C(F)(F)F)C2)C1 [Ex. 34, (5R)-1-{(2S)-2-amino-4-[2-(4-fluorophenyl)-4-(trifluoromethyl)-5,8-dihydropyrido[3,4-d]pyrimidin-7(6H)-yl]-4-oxobutyl}-5-methylpiperidin-2-one] | 34 |
| C[C@@H]1CCC(=O)N(C[C@@H](N)CC(=O)N2CCn3c(nnc3C(F)(F)F)C2)C1 [Ex. 12, 1-[2S-amino-4-oxo-4-(3-trifluoromethyl-5,6-dihydro-8H-[1,2,4]triazolo[4,3-a]pyrazin-7-yl)-butyl]-5R-methyl-piperidin-2-one] | 35 |
| C[C@H]1CCC(=O)N(C[C@@H](N)CC(=O)N2CCc3c(nc(C(F)(F)F)nc3C(F)(F)F)C2)C1 [Ex. 80] | 8850 |
| N[C@@H](CC(=O)N1CCc2c(nc(-c3cccc(F)c3)nc2C(F)(F)F)C1)CN1CC(F)(F)CCC1=O [Ex. 32, 1-{(2S)-2-amino-4-[2-(3-fluorophenyl)-4-(trifluoromethyl)-5,8-dihydropyrido[3,4-d]pyrimidin-7(6H)-yl]-4-oxobutyl}-5,5-difluoropiperidin-2-one] | 199 |
